# Laboratory results reported in patent EP4567103A1, “USE OF PYRUVATE FOR POTENTIATING NK CELLS” (LVMH Recherche, priority 2023, dated 2025).
# Legend:
# NK cells [1] = test: Intracellular ATP concentration in NK cells, luciferase-based assay (CellTiter-Glo 2.0); format: cell-based; details: Homo sapiens; isolated NK cells, 30,000 cells per well, pyruvate 0.01 to 10mM, 4 hours; read-out: EC50 for the intracellular ATP production (the pyruvate concentration at which the ATP production is half-maximal)
# Description: (§1) Peripheral blood samples from healthy subjects were obtained from the French blood bank (Etablissement Français du sang, Lyon, France).
# (§2) Human PBMCs were separated from peripheral blood by Ficoll® gradient centrifugation (Eurobio Laboratoires & AbCys) at room temperature. The PBMCs were kept at 4°C in complete medium overnight.
# NK cells (CD56^Dim CD3) were isolated using an NK Cell Isolation Kit (Miltenyi Biotec) following the manufacturer's instructions, and then sorted (BD FACS ARIA II, purity > 99%, the following mAbs from eBioscience, BD Biosciences, Biolegend or Cell Signalling Technology were used: anti-CD56 (NCAM16.2), and anti-CD3 (UCHT1)). Freshly sorted NK cells were left to recover from the sorting overnight at 37°C with a non-activating dose of IL-15 (1 ng/ml, Peprotech) in RPMI 1640 medium additionally containing 10% FBS, 2mM HEPES, 2mM glutamine, 1mM pyruvate (sodium pyruvate) and 1% penicillin/streptomycin (HCL Technologies). […]
# The intracellular ATP concentration at each concentration of pyruvate was measured using a luciferase-based assay following the manufacturer's instructions (CellTiter-Glo® 2.0 Cell Viability Assay and NAD/NADH-Glo Assay, Promega Corporation, Madison, WI). Luminescence was measured using a Tristar luminometer (Berthold).
# NK cells [2] = test: Cytotoxicity of NK cells against K562 NanoLuc-expressing target cells (bioluminescence lysis assay); format: cell-based; details: Homo sapiens; pyruvate 0.01 to 10 mM for 3 hours, then co-cultured for 4 hours with K562 NanoLuc-expressing target cells; read-out: EC50 for the cytotoxicity of the NK cells (the pyruvate concentration at which the cytotoxicity is half-maximal)
# Description: as §1, §2
# NK cells (CD56^Dim CD3) were isolated using an NK Cell Isolation Kit (Miltenyi Biotec) following the manufacturer's instructions, and then sorted (BD FACS ARIA II, purity > 99%, the following mAbs from eBioscience, BD Biosciences, Biolegend or Cell Signalling Technology were used: anti-CD56 (NCAM16.2), and anti-CD3 (UCHT1)). […]
# NK cells were prepared as in Example 1, and were cultured in the absence or in the presence of pyruvate at varying concentrations (0.01 to 10 mM) for 3 hours and then co-cultured for 4 hours with K562 NanoLuc®-expressing target cells. The supernatant was collected and bioluminescence was measured using a Tristar Instrument luminometer (Berthold) after addition of Furimazin (the substrate of NanoLuc). The percentage of cell lysis were calculated as explained in Hayek, S. et al., SLAS Discov. […]
smiles,measurement,setting,value
CC(=O)C(=O)O [pyruvate],EC50,NK cells [1],500 µM
same,EC50,NK cells [2],260 µM
